In US20240270758A1, “PYRIDINO-OR PYRIMIDO-CYCLIC COMPOUND, PREPARATION METHOD THEREFOR AND MEDICAL USE THEREOF” (Genfleet Therapeutics (Shanghai) Inc., priority 2021, published 2024):

Columns and labels:
Assay type in all cases: cell-based, human
[1] = system: p-ERK in AGS cells (KRAS^G12D mutation); assay: Cell p-ERK detection assay; settings: 3 h incubation, HTRF
Method: AGS was purchased from ATCC; Cat. NO.: CRL-1739; F12K was purchased from Gibco; Cat. NO.: 21127-022; FBS was purchased from Gibco; Cat. NO.: 10099-141C; Trypsin (containing EDTA) was purchased from Gibco; Cat. NO.: 25200-072; DMSO was purchased from VWRAMRESCO; Cat. NO.: 0231-500ML; 96-well cell culture plate was purchased from Corning; Cat. NO.: 3599; An white background opaque 96-well plate was purchased from Cisbio; Cat. NO.: 66PL96025; Advance ERK phospho-T202/Y204 kit was purchased from Cisbio; Cat. NO.: 64AERPEH; Cell Counters were purchased from CHEMOMETEC; Model NO.: NC-200; microplate reader was purchased from PerkinElmer; Model NO.: Envison.
AGS is an endogenous human gastric adenocarcinoma cell line containing KRAS^G12D mutation, cultured in F12K+10% FBS medium. On the first day of the experiment, cells in the logarithmic growth phase were taken, digested with trypsin (containing EDTA), collected, and counted, and approximately 20,000 cells/well were inoculated in 96-well cell culture plates and cultured overnight in a 5% CO2 incubator. A 1000×3.16-fold gradient concentration stock of the compound was prepared using DMSO, diluted 200-fold into a 5× compound stock using the medium described above, and a 5× compound stock was added to each cell culture well the day after cell inoculating at a final concentration of 1× and a DMSO content of 0.1%. DMSO was used as an experimental control. After the compound was added and the incubation was continued for 3 h, the medium in the culture wells was removed, […] of cell lysis solution (from Advance ERK phospho-T202/Y204 kit, the same below) was added to each well, mixed well and incubated for 30 min, then […] of the mixed solution was transferred to a white background opaque 96-well plate, and another well was taken as a blank well with adding […] of cell lysis solution. After the transfer, […] of p-ERK HTRF antibody mixed solution (from Advance ERK phospho-T202/Y204 kit) was added to each well, after incubation for 4 h, HTRF fluorescence value (RLU) was read by a microplate reader, and p-ERK level inhibition ratio of the compound was calculated IR (%)=(RLU control-RLU compound)/(RLU control-RLU blank)×100%, compound concentration and corresponding cell p-ERK level inhibition ratio were fitted using Prism 8 four-parameter method, and IC50 value was calculated.

[2] = system: AGS cells (KRAS^G12D mutation); assay: Cell proliferation inhibition assay (3D, CellTiter-Glo), AGS; settings: 3D cell model, 5 days
Excerpt: (§1) AsPC-1 was purchased from ATCC; Cat. NO.: CRL-1682; AGS was purchased from ATCC; Cat. NO.: CRL-1739; RPMI1640 was purchased from Gibco; Cat. NO.: 11875-093 2235123; F12K was purchased from Gibco; Cat. NO.: 21127-022; FBS was purchased from Gibco; Cat. NO.: 10099-141C; Trypsin (containing EDTA) was purchased from Gibco; Cat. NO.: 25200-072; CellTiter Glo-3D was purchased from Progema; Cat. NO.: G9683; 384-well sphere plates were purchased from coming; Cat. NO.: 3830; White background opaque 384-well plates were purchased from coming; Cat. NO.: 3570; Cell Counters were purchased from CHEMOMETEC; Model NO.: NC-200; microplate reader was purchased from PerkinElmer; Model NO.: Envison;
(§2) AsPC-1 is an endogenous human pancreatic cancer cell containing KRAS^G12D mutation, which is cultured in RPMI-1640 medium containing 10% FBS; AGS human gastric cancer cell line containing KRAS^G12D mutation, cultured in F-12K medium containing 10% FBS. Cells in the logarithmic growth phase were taken, digested with trypsin (containing EDTA), harvested and counted, and inoculated with 800 AsPC-1 cells/well or 400 AGS cells/well, respectively, in 384-well sphere plates and cultured overnight at 5% C02 to establish a 3D cell model. A 3.16-fold gradient concentration stock solution of 1000× compound was prepared using DMSO, diluted 100-fold into a 10× compound stock solution using media, and a 10× compound stock solution was added to each cell culture well the day after cell inoculating at a final concentration of 1× with a DMSO content of 0.1%. DMSO was used as an experimental control (control) and culture medium as a blank control (blank). After the addition of compounds, the cells were cultured for 5 days. […] CellTiter-Glo working solution was added to each well, mixed well, and incubated for 30 min. After standing for 30 min at room temperature, 40 μl of the mixed solution was transferred to a white background opaque 384-well plate. Luminescence chemiluminescence value was read on a microplate reader, and the cell proliferation inhibition ratio was calculated, IR (%)=(RLU control-RLU compound)/(RLU control-RLU blank)×100%. XLFit four-parameter method was used to fit the gradient dilution concentration of compounds and the corresponding cell proliferation inhibition ratio, and the IC50 value was calculated. […] Results for exemplary of the example compounds are shown in Table 3 below. - indicates not detected.

[3] = system: AsPC-1 cells (KRAS^G12D mutation); assay: Cell proliferation inhibition assay (3D, CellTiter-Glo), AsPC-1; settings: 3D cell model, 5 days
Excerpt: as §1, §2

| SMILES | IC50 ([1]; Homo sapiens, AGS, 3 h) [nM] | IC50 ([2]; Homo sapiens, AGS, 120 h) [nM] | IC50 ([3]; Homo sapiens, ASPC1, 120 h) [nM] | IC50 [1] [nM] | IC50 [2] [nM] | IC50 [3] [nM] |
| --- | --- | --- | --- | --- | --- | --- |
| C#Cc1cccc2cc(O)cc(-c3ncc4c(N5C[C@H]6CC[C@@H](C5)N6)nc(OCC56CC(=C)CN5CCC65CC5)nc4c3F)c12 (stereo partly drawn) [Example Z106, 4-(4-((1R,5S)-3,8-diazabicyclo[3.2.1]octan-3-yl)-8-fluoro-2-((6′-methylenetetrahydrospiro[cyclopropane-1,1′-pyrrolizin]-7a′(5′H)-yl)methoxy)pyrido[4,3-d]pyrimidin-7-yl)-5-ethynylnaphthalen-2-ol] | 1.36 | 4.6 | 14.7 |  |  |  |
| C#Cc1c(F)ccc2cc(O)cc(-c3ncc4c(N5C[C@H]6CC[C@@H](C5)N6)nc(OCC56CC(=C)CN5CC(=C)C6)nc4c3Cl)c12 [Example Z211, 4-(4-((1R,5S)-3,8-diazacyclo[3.2.1]octan-3-yl)-8-chloro-2-((2,6-dimethylenetetrahydro-1H-pyrrolizin-7a(5H)-yl)methoxy)pyrido[4,3-d]pyrimidin-7-yl)-5-ethynyl-6-fluoronaphthalen-2-ol] |  |  |  | 5.47 | 4.8 | 71.9 |
| C#Cc1c(F)ccc2cc(O)cc(-c3ncc4c(N5C[C@H]6CC[C@@H](C5)N6)nc(OCC56CC(=C)CN5CC(=C(F)F)C6)nc4c3F)c12 (stereo partly drawn) [Example Z215] |  |  |  | 1.19 | 5.13 | 49.4 |
| C#Cc1cccc2cc(N)c(F)c(-c3ncc4c(N5C[C@H]6CC[C@@H](C5)N6)nc(OCC56CC(=C)CN5CC(=C)C6)nc4c3F)c12 [Example Z213, 4-(4-((1R,5S)-3,8-diazabicyclo[3.2.1]octan-3-yl)-2-((2,6-dimethylenetetrahydro-1H-pyrrolizin-7a(5H)-yl)methoxy)-8-fluoropyrido[4,3-d]pyrimidin-7-yl)-5-ethynyl-3-fluoronaphthalen-2-amine] | 62.9 | 57.5 | 335 |  |  |  |
| C#Cc1cccc2cc(O)cc(-c3ncc4c(N5C[C@H]6CC[C@@H](C5)N6)nc(OCC56CC(=C)CN5CC(=C)C6)nc4c3F)c12 [Example Z21] |  |  |  | 0.6 | 6.5 | 14.7 |
| C#Cc1cccc2cc(N)cc(-c3ncc4c(N5C[C@H]6CC[C@@H](C5)N6)nc(OCC56CC(=C)CN5CC(=C)C6)nc4c3F)c12 [Example Z206, 4-(4-((1R,5S)-3,8-diazabicyclo[3.2.1]octan-3-yl)-2-((2,6-dimethylenetetrahydro-1H-pyrrolizin-7a(5H)-yl)methoxy)-8-fluoropyrido[4,3-d]pyrimidin-7-yl)-5-ethynylnaphthalen-2-amine] |  |  |  | 5.47 | 20.1 | 35.4 |
| C#Cc1cccc2cc(O)cc(-c3ncc4c(N5C[C@@H]6CC[C@@H](N6)[C@H]5C)nc(OCC56CC(C)CN5CC(C)C6)nc4c3F)c12 (stereo partly drawn) [Example Z207, 4-(2-((2,6-dimethyltetrahydro-1H-pyrrolizin-7a(5H)-yl)methoxy)-8-fluoro-4-((1R, 2R, 5S)-2-methyl-3,8-diazabicyclo[3.2.1]octan-3-yl)pyrido[4,3-d]pyrimidin-7-yl)-5-ethynylnaphthalen-2-ol] | 13.4 | 32 | 91.1 |  |  |  |
| C=C1CN2CCCC2(COc2nc(N3C[C@H]4CC[C@@H](C3)N4)c3cnc(-c4cc(O)cc5cccc(F)c45)c(F)c3n2)C1 (stereo partly drawn) [Example Z24, 4-(4-((1R,5S)-3,8-diazabicyclo[3.2.1]octan-3-yl)-8-fluoro-2-((2-methylenetetrahydro-1H-pyrrolizin-7a(5H)-yl)methoxy)pyrido[4,3-d]pyrimidin-7-yl)-5-fluoronaphthalen-2-ol] | 3.59 | 3.3 | 56 |  |  |  |
| C#Cc1cccc2cc(O)cc(-c3ncc4c(N5C[C@H]6CC[C@@H](C5)N6)nc(OCC56CCCN5CC(=C)C6)nc4c3F)c12 (stereo partly drawn) [Example Z8, 4-(4-((1R,5S)-3,8-diazabicyclo[3.2.1]octan-3-yl)-8-fluoro-2-((2-methylenetetrahydro-1H-pyrrolizin-7a(5H)-yl)methoxy)pyrido[4,3-d]pyrimidin-7-yl)-5-ethynylnaphthalen-2-ol] | 2.78 | 5.3 | 57.7 |  |  |  |
| C#Cc1c(F)ccc2cc(O)cc(-c3ncc4c(N5C[C@H]6CC[C@@H](C5)N6)nc(OC[C@@]56CCCN5CC(=C)C6)nc4c3F)c12 [Example Z12, 4-(4-((1R,5S)-3,8-diazabicyclo[3.2.1]octan-3-yl)-8-fluoro-2-(((S)-2-methylenetetrahydro-1H-pyrrolizin-7a(5H)-yl)methoxy)pyrido[4,3-d]pyrimidin-7-yl)-5-ethynyl-6-fluoronaphthalen-2-ol] | 1.83 | 2.8 | 12.5 |  |  |  |
| C#Cc1cccc2cc(N)cc(-c3ncc4c(N5C[C@H]6CC[C@@H](C5)N6)nc(OCC56CC(=C)CN5CC(=C)C6)nc4c3F)c12 [Example Z214, 4-(4-((1R,5S)-3,8-diazabicyclo[3.2.1]octan-3-yl)-2-((2,6-dimethylenetetrahydro-1H-pyrrolizin-7a(5H)-yl)methoxy)-8-fluoropyrido[4,3-d]pyrimidin-7-yl)-5-ethynylnaphthalen-2-amine] |  |  |  | 105 | 106 | 611 |
| C#Cc1c(F)ccc2cc(O)cc(-c3ncc4c(N5C[C@H]6CC[C@@H](C5)N6)nc(OCC56CC(=C)CN5[C@H]5C[C@H]5C6)nc4c3F)c12 (stereo partly drawn) [Example Z210, 4-(4-((1R,5S)-3,8-diazabicyclo[3.2.1]octan-3-yl)-8-fluoro-2-(((1aS,6aS)-4-methylenehexahydrocyclopropa[b]pyrrolizin-5a(3H)-yl)methoxy)pyrido[4,3-d]pyrimidin-7-yl)-5-ethynyl-6-fluoronaphthalen-2-ol] | 16.6 | 26 | 176 |  |  |  |
| C#Cc1cccc2cc(O)cc(-c3ncc4c(N5C[C@H]6CC[C@@H](C5)N6)nc(OCC56CCCN5CC(=C(F)F)C6)nc4c3F)c12 (stereo partly drawn) [Example Z27, 4-(4-((1R,5S)-3,8-diazabicyclo[3.2.1]octan-3-yl)-2-((2-(difluoromethylene)tetrahydro-1H-pyrrolizine 7a(5H)-yl)methoxy)-8-fluoropyrido[4,3-d]pyrimidin-7-yl)-5-ethynylnaphthalen-2-ol] | 1.1 | 3.1 | 6.9 |  |  |  |
| C#Cc1c(Cl)ccc2cc(O)cc(-c3ncc4c(N5C[C@H]6CC[C@@H](C5)N6)nc(OCC56CC(=C)CN5CC(=C)C6)nc4c3F)c12 [Example Z216, 4-(4-((1R,5S)-3,8-diazabicyclo[3.2.1]octan-3-yl)-2-((2,6-dimethylenetetrahydro-1H-pyrrolizin-7a(5H)-yl)methoxy)-8-fluoropyrido[4,3-d]pyrimidin-7-yl)-6-chloro-5-ethynylnaphthalen-2-ol] | 1.22 | 3.14 | 43.7 |  |  |  |
